First: O=C(N[C@H](Cc1ccc(C(F)(F)F)cc1)[C@@H](O)c1ccc(F)cc1)c1ccc(F)c2c1CCCC2 (racemic) [Example 31, 4-fluoro-N-[(1RS,2SR)-2-(4-fluorophenyl)-2-hydroxy-1-[4-(trifluoromethyl)benzyl]ethyl]-5,6,7,8-tetrahydronaphthalene-1-carboxamide]
Second: O=C(N[C@H](Cc1ccc(C(F)(F)F)cc1)[C@@H](O)c1ccc(F)cc1)c1ccc([N+](=O)[O-])c2c1CCCC2 (racemic) [Example 38, N-[(1RS,2SR)-2-(4-fluorophenyl)-2-hydroxy-1-[4-(trifluoromethyl)benzyl]ethyl]-4-nitro-5,6,7,8-tetrahydronaphthalene-1-carboxamide]
The melting point of the first is higher: 241 to 242 °C for the first, 207 to 209 °C for the second.

First: O=C(N[C@H](Cc1ccc(C(F)(F)F)cc1)[C@@H](O)c1ccc(F)cc1)c1cccc2c(F)cccc12 (racemic) [Example 32, 5-fluoro-N-[(1RS,2SR)-2-(4-fluorophenyl)-2-hydroxy-1-[4-(trifluoromethyl)benzyl]ethyl]naphthalene-1-carboxamide]
Second: O=C(N[C@H](Cc1ccc(C(F)(F)F)cc1)[C@@H](O)c1ccc(F)cc1)c1cccc2c(Cl)cccc12 (racemic) [Example 37, 5-chloro-N-[(1RS,2SR)-2-(4-fluorophenyl)-2-hydroxy-1-[4-(trifluoromethyl)benzyl]ethyl]naphthalene-1-carboxamide]
The melting point of the first is higher: 222 to 224 °C for the first, 211 to 212 °C for the second.

Compared with O=C(N[C@H](Cc1ccc(C(F)(F)F)cc1)[C@@H](O)c1ccc(F)cc1)c1cccc2c1CCCC2 (racemic) [Example 33, N-[(1RS,2SR)-2-(4-fluorophenyl)-2-hydroxy-1-[4-(trifluoromethyl)benzyl]ethyl]-5,6,7,8-tetrahydronaphthalene-1-carboxamide], O=C(N[C@H](Cc1ccc(C(F)(F)F)cc1)[C@@H](O)c1ccc(F)cc1)c1cccc2c1CCCCC2 (racemic) [Example 42, N-[(1RS,2SR)-2-(4-fluorophenyl)-2-hydroxy-1-[4-(trifluoromethyl)benzyl]ethyl]-6,7,8,9-tetrahydro-5H-benzo[a]cycloheptene-1-carboxamide] is lower in melting point: 219 to 221 °C for the first, 210 to 211 °C for the second.

Compared with O=C(N[C@H](Cc1ccc(C(F)(F)F)cc1)[C@@H](O)c1ccc(F)cc1)c1ccc(Cl)c2ccccc12 (racemic) [Example 34, 4-chloro-N-[(1RS,2SR)-2-(4-fluorophenyl)-2-hydroxy-1-[4-(trifluoromethyl)benzyl]ethyl]naphthalene-1-carboxamide], Cc1ccc(C(=O)N[C@H](Cc2ccc(C(F)(F)F)cc2)[C@@H](O)c2ccc(F)cc2)c2ccccc12 (racemic) [Example 36, N-((1RS,2SR)-2-(4-fluorophenyl)-2-hydroxy-1-((4-(trifluoromethyl)phenyl)methyl)ethyl)-4-methyl-1-naphthalenecarboxamide] is lower in melting point: 222 to 223 °C for the first, 198 to 199 °C for the second.

Compared with O=C(N[C@H](Cc1ccc(C(F)(F)F)cc1)[C@@H](O)c1ccc(F)cc1)c1cccc2ccccc12 (racemic) [Example 35, N-[(1RS,2SR)-2-(4-fluorophenyl)-2-hydroxy-1-[4-(trifluoromethyl)benzyl]ethyl]naphthalene-1-carboxamide], O=C(N[C@H](Cc1ccc(C(F)(F)F)cc1)[C@@H](O)c1ccc(F)cc1)c1cccc2cc(F)ccc12 (racemic) [Example 39, 6-fluoro-N-[(1RS,2SR)-2 (4-fluorophenyl)-2-hydroxy-1-[4-(trifluoromethyl)benzyl]ethyl]naphthalene-1-carboxamide] is higher in melting point: 214 to 216 °C for the first, 223 to 224 °C for the second.

First: O=C(N[C@H](Cc1ccc(C(F)(F)F)cc1)[C@@H](O)c1ccc(F)cc1)c1cccc2c([N+](=O)[O-])cccc12 (racemic) [Example 40, N-[(1RS,2SR)-2-(4-fluorophenyl)-2-hydroxy-1-[4-(trifluoromethyl)benzyl]ethyl]-5-nitronaphthalene-1-carboxamide]
Second: O=C(N[C@H](Cc1ccc(C(F)(F)F)cc1)[C@@H](O)c1ccc(F)cc1)c1cccc2cc([N+](=O)[O-])ccc12 (racemic) [Example 51, N-[(1RS,2SR)-2-(4-fluorophenyl)-2-hydroxy-1-[4-(trifluoromethyl)benzyl]ethyl]-6-nitronaphthalene-1-carboxamide]
The melting point of the first is higher: 211 to 214 °C for the first, 206 to 207 °C for the second.

Compared with O=C(N[C@H](Cc1ccc(C(F)(F)F)cc1)[C@@H](O)c1ccc(F)cc1)C1CCCc2ccccc21 (mixture of isomers) [Example 41, N-[(1RS,2SR)-2-(4-fluorophenyl)-2-hydroxy-1-[4-(trifluoromethyl)benzyl]ethyl]-1,2,3,4-tetrahydronaphthalene-1-carboxamide], O=C1CC(C(=O)N[C@H](Cc2ccc(C(F)(F)F)cc2)[C@@H](O)c2ccc(F)cc2)c2ccccc21 (mixture of isomers) [Example 53, N-((1RS,2SR)-2-(4-fluorophenyl)-2-hydroxy-1-((4-(trifluoromethyl)phenyl)methyl)ethyl)-3-oxo-2,3-dihydro-1H-indene-1-carboxamide] is higher in melting point: 205 to 214 °C for the first, 237 to 238 °C for the second.

Compared with O=C(N[C@H](Cc1ccc(C(F)(F)F)cc1)[C@@H](O)c1ccc(F)cc1)c1ccc(Br)c2ccccc12 (racemic) [Example 43, 4-bromo-N-[(1RS,2SR)-2-(4-fluorophenyl)-2-hydroxy-1-[4-(trifluoromethyl)benzyl]ethyl]naphthalene-1-carboxamide], N#Cc1ccc(C(=O)N[C@H](Cc2ccc(C(F)(F)F)cc2)[C@@H](O)c2ccc(F)cc2)c2ccccc12 (racemic) [Example 54, 4-cyano-N-[(1RS,2SR)-2-(4-fluorophenyl)-2-hydroxy-1-[4-(trifluoromethyl)benzyl]ethyl]naphthalene-1-carboxamide] is lower in melting point: 229 to 231 °C for the first, 199 to 201 °C for the second.

Compared with O=C(CC1CCCC1)N[C@H](Cc1ccc(C(F)(F)F)cc1)[C@@H](O)c1ccc(F)cc1 (racemic) [Example 44, 2-cyclopentyl-N-[(1RS,2SR)-2-(4-fluorophenyl)-2-hydroxy-1-[4-(trifluoromethyl)benzyl]ethyl]acetamide], O=C(CCC1CCCC1)N[C@H](Cc1ccc(C(F)(F)F)cc1)[C@@H](O)c1ccc(F)cc1 (racemic) [Example 45, 3-cyclopentyl-N-[(1RS,2SR)-2-(4-fluorophenyl)-2-hydroxy-1-[4-(trifluoromethyl)benzyl]ethyl]propionamide] is lower in melting point: 195 to 196 °C for the first, 169 to 170 °C for the second.

First: O=C(N[C@H](Cc1ccc(C(F)(F)F)cc1)[C@@H](O)c1ccc(F)cc1)c1csc2ccccc12 (racemic) [Example 46, N-[(1RS,2SR)-2-(4-fluorophenyl)-2-hydroxy-1-[4-(trifluoromethyl)benzyl]ethyl]-1-benzothiophene-3-carboxamide]
Second: O=C(N[C@H](Cc1ccc(C(F)(F)F)cc1)[C@@H](O)c1ccc(F)cc1)c1ccnc2ccccc12 (racemic) [Example 57, N-((1RS,2SR)-2-(4-fluorophenyl)-2-hydroxy-1-((4-(trifluoromethyl)phenyl)methyl)ethyl)-4-quinolinecarboxamide]
The melting point of the first is lower: 188 to 189 °C for the first, 227 to 228 °C for the second.

First: O=C(CCCc1ccccc1)N[C@H](Cc1ccc(C(F)(F)F)cc1)[C@@H](O)c1ccc(F)cc1 (racemic) [Example 47, N-((1RS,2SR)-2-(4-fluorophenyl)-2-hydroxy-1-((4-(trifluoromethyl)phenyl)methyl)ethyl)-4-phenylbutyramide]
Second: O=C(CCc1ccccc1)N[C@H](Cc1ccc(C(F)(F)F)cc1)[C@@H](O)c1ccc(F)cc1 (racemic) [Example 48, N-((1RS,2SR)-2-(4-fluorophenyl)-2-hydroxy-1-((4-(trifluoromethyl)phenyl)methyl)ethyl)-3-phenylpropanamide]
The melting point of the first is higher: 150 to 151 °C for the first, 144 to 145 °C for the second.

Compared with CC(=CC(=O)N[C@H](Cc1ccc(C(F)(F)F)cc1)[C@@H](O)c1ccc(F)cc1)C(F)(F)F (racemic) [Example 49, 4,4,4-trifluoro-N-[(1RS,2SR)-2-(4-fluorophenyl)-2-hydroxy-1-[4-(trifluoromethyl)benzyl]ethyl]-3-methyl-2-butenamide], O=C(N[C@H](Cc1ccc(C(F)(F)F)cc1)[C@@H](O)c1ccc(F)cc1)c1ccc(F)cc1 (racemic) [Example 55, 4-fluoro-N-((1RS,2SR)-2-(4-fluorophenyl)-2-hydroxy-1-((4-(trifluoromethyl)phenyl)methyl)ethyl)benzamide] is higher in melting point: 182 to 183 °C for the first, 202 to 203 °C for the second.

Compared with O=C(N[C@H](Cc1ccc(C(F)(F)F)cc1)[C@@H](O)c1ccc(F)cc1)c1cccc(Cl)c1Cl (racemic) [Example 50, 2,3-dichloro-N-((1RS,2SR)-2-(4-fluorophenyl)-2-hydroxy-1-((4-(trifluoromethyl)phenyl)methyl)ethyl)benzamide], COc1ccc2c(C(=O)N[C@H](Cc3ccc(C(F)(F)F)cc3)[C@@H](O)c3ccc(F)cc3)cccc2c1 (racemic) [Example 56, N-((1RS,2SR)-2-(4-fluorophenyl)-2-hydroxy-1-((4-(trifluoromethyl)phenyl)methyl)ethyl)-6-(methyloxy)-1-naphthalenecarboxamide] is higher in melting point: 187 to 188 °C for the first, 193 to 194 °C for the second.

First: O=C(N[C@H](Cc1ccc(C(F)(F)F)cc1)[C@@H](O)c1ccc(F)cc1)C1CCCCC1 (racemic) [Example 52, N-((1RS,2SR)-2-(4-fluorophenyl)-2-hydroxy-1-((4-(trifluoromethyl)phenyl)methyl)ethyl)cyclohexanecarboxamide]
Second: COc1ccc(C(=O)N[C@H](Cc2ccc(C(F)(F)F)cc2)[C@@H](O)c2ccc(F)cc2)cc1 (racemic) [Example 60, N-((1RS,2SR)-2-(4-fluorophenyl)-2-hydroxy-1-((4-(trifluoromethyl)phenyl)methyl)ethyl)-4-(methyloxy)benzamide]
The melting point of the first is higher: 203 to 204 °C for the first, 192 to 193 °C for the second.

O=C(N[C@H](Cc1ccc(C(F)(F)F)cc1)[C@@H](O)c1ccc(F)cc1)c1cccc2c1-c1ccccc1C2=O (racemic) [Example 61, N-((1RS,2SR)-2-(4-fluorophenyl)-2-hydroxy-1-((4-(trifluoromethyl)phenyl)methyl)ethyl)-9-oxo-9H-fluorene-4-carboxamide] gave a melting point of 231 to 232 °C.

Source: patent US6982348B2, “Aminoethanol derivatives” (Takeda Pharmaceutical Company Limited, priority 2001, dated 2006)
